Laboratory results published in the supplement of paper PMC13380429.

Columns and labels:
Conditions in all cases: 72 h
Caco-2 [1] = test: cell viability relative to DMSO; higher = less toxic
Calu-3 [2] = test: as above
HepG2 [3] = test: as above
U2OS [4] = test: as above
Vero E6 [5] = test: as above
Caco-2 [6] = test: relative viability EC50 (midpoint between 100% and the lowest measured viability); higher = less toxic
Calu-3 [7] = test: as above
HepG2 [8] = test: as above
U2OS [9] = test: as above
Vero E6 [10] = test: as above
Caco-2 [11] = test: drug sensitivity score (DSS) for viability; higher = more toxic; extreme values may be limits of the assay
Calu-3 [12] = test: as above
HepG2 [13] = test: as above
U2OS [14] = test: as above
Vero E6 [15] = test: as above

Compound	cell viability (Caco-2 [1]; 1 nM) [%]	cell viability (Caco-2 [1]; 10 nM) [%]	cell viability (Caco-2 [1]; 100 nM) [%]	cell viability (Caco-2 [1]; 1000 nM) [%]	cell viability (Caco-2 [1]; 10000 nM) [%]	cell viability (Calu-3 [2]; 1 nM) [%]	cell viability (Calu-3 [2]; 10 nM) [%]	cell viability (Calu-3 [2]; 100 nM) [%]	cell viability (Calu-3 [2]; 1000 nM) [%]	cell viability (Calu-3 [2]; 10000 nM) [%]	cell viability (HepG2 [3]; 1 nM) [%]	cell viability (HepG2 [3]; 10 nM) [%]	cell viability (HepG2 [3]; 100 nM) [%]	cell viability (HepG2 [3]; 1000 nM) [%]	cell viability (HepG2 [3]; 10000 nM) [%]	cell viability (U2OS [4]; 1 nM) [%]	cell viability (U2OS [4]; 10 nM) [%]	cell viability (U2OS [4]; 100 nM) [%]	cell viability (U2OS [4]; 1000 nM) [%]	cell viability (U2OS [4]; 10000 nM) [%]	cell viability (Vero E6 [5]; 1 nM) [%]	cell viability (Vero E6 [5]; 10 nM) [%]	cell viability (Vero E6 [5]; 100 nM) [%]	cell viability (Vero E6 [5]; 1000 nM) [%]	cell viability (Vero E6 [5]; 10000 nM) [%]	relative viability EC50 (Caco-2 [6]) [µM]	relative viability EC50 (Calu-3 [7]) [µM]	relative viability EC50 (HepG2 [8]) [µM]	relative viability EC50 (U2OS [9]) [µM]	relative viability EC50 (Vero E6 [10]) [µM]	drug sensitivity score (Caco-2 [11])	drug sensitivity score (Calu-3 [12])	drug sensitivity score (HepG2 [13])	drug sensitivity score (U2OS [14])	drug sensitivity score (Vero E6 [15])
CC(C)Oc1ccc(-c2cnc3c(-c4ccnc5ccccc45)cnn3c2)cc1 [DMH1]	108	93.7	102	95.9	95.6	117	102	105	108	96.4	104	103	100	96.8	90	103	100	98.4	94.4	89.8	95.4	104	98.2	104	104	> 10	> 10	> 10	> 10	> 10	0	0	0	0	0
CC(=O)c1ccc(NS(C)(=O)=O)c(Oc2ccc(F)cc2F)c1 [FK-3311]	99	90.1	96.9	94	95.8	110	93.1	103	109	114	98.3	107	98.6	99.5	87.3	104	98.1	98.7	97.2	102	98.3	101	96.2	102	92.8	> 10	> 10	> 10	> 10	> 10	0	0	0.1	0	0
CCCCC/C=C\C/C=C\CCCCCCCC(=O)NCCCC(=O)O [GABA-linoleamide]	96.9	110	96.2	87.5	126	86	97.9	87	111	90.6	74.4	97.2	95.6	98.2	120	95.2	97.9	99.3	102	95.8	106	108	111	99.1	114	> 10	> 10	> 10	> 10	> 10	0	0	0	0	0
CC/C(=C(/c1ccc(/C=C/C(=O)O)cc1)c1ccc2[nH]ncc2c1)c1ccc(F)cc1Cl [GDC-0810]	102	94.6	95	102	92.7	105	110	84.4	108	105	87.5	109	92.2	94.1	90.6	101	102	98.7	104	100	92.9	102	96.4	100	90.6	> 10	> 10	> 10	> 10	> 10	0	0	0	0	0
Cc1cc(C)c(CNC(=O)c2cc(-c3ccc(N4CCN(C)CC4)nc3)cc3c2c(C)cn3C(C)C)c(=O)[nH]1 [GSK503]	98.8	104	93.7	105	102	88.3	85.3	92.9	109	104	92.6	112	99.7	94.4	87.2	104	98.6	104	101	102	101	104	105	98.6	102	> 10	> 10	> 10	> 10	> 10	0	0	0.4	0	0
CCN(CC)CCNC(=O)c1ccccc1I [I-BZA2]	89.9	86.5	98.7	100	91.4	98.8	102	105	105	115	105	94.7	102	84	100	99.1	101	95.8	102	102	99	99.3	104	91.5	110	> 10	> 10	> 10	> 10	> 10	0	0	0	0	0
CCN(CC)CCNC(=O)c1ccc(I)cc1 [I-BZA]	96.9	95.9	104	106	104	93.3	101	96.3	105	114	93.9	101	98.9	102	93.1	99.7	94.7	98.5	95.8	101	91.3	104	95	101	94.8	> 10	> 10	> 10	> 10	> 10	0	0	0	0	0
CCCNC(=O)Nc1ccc(Oc2ncnc3cc(OC)c(OC)cc23)cc1Cl [KRN-633]	92.8	98.5	86.6	93	90.8	100	101	95.4	101	97.4	103	90.5	100	92.1	94.5	96.8	97.7	96	97	93.4	101	103	104	105	99.2	> 10	> 10	> 10	> 10	> 10	0	0	0	0	0
Cc1cc(N2CCCCC2)nc2ccccc12 [ML204]	87.9	97.4	84.3	96.2	87.9	113	95.5	101	107	110	92	93.5	88.8	104	102	99.7	98.4	96.9	102	101	91.7	92.7	87.3	92.2	103	> 10	> 10	> 10	> 10	> 10	0	0	0	0	0
Cc1cc(NC(=O)Nc2ccc(F)c(F)c2)n(-c2ccccc2)n1 [ML297]	96.9	97	95.9	108	99.2	103	98.5	105	97.4	98.7	105	90.5	108	91.6	98.1	97.1	101	101	103	98.2	104	99.5	98.2	102	99.5	> 10	> 10	> 10	> 10	> 10	0	0	0	0	0
O=C(Nc1ccc(O)cc1)c1ccccc1O [N-salicoylaminophenol]	94.3	96	97.4	94.7	92.7	105	99.1	95.2	94.1	94.7	90.2	106	92.1	105	113	96.6	98.1	95.6	97.4	93.3	93.2	99.4	90.9	93.1	110	> 10	> 10	> 10	> 10	> 10	0	0	0	0	0
O=C(NCc1ccccn1)Nc1nnc(-c2ccco2)o1 [NK-252]	103	94.6	103	91.5	80.7	104	99.9	94.2	103	107	104	97.4	90.4	77.2	30.6	103	101	105	99.3	103	94.5	104	104	103	101	> 10	> 10	1.47	> 10	> 10	1.4	0	6.5	0	0
C[C@@]1(O)[C@H](O)[C@@H](CO)O[C@H]1n1ccc(N)nc1=O [NM107]	93	97.3	95.9	91.2	103	99.1	104	95	93.9	84.6	99	107	106	111	110	98.3	93.4	100	94.8	101	96	100	88.7	99.4	113	> 10	> 10	> 10	> 10	> 10	0	0.3	0	0	0
Cc1cc(OCc2nnc(SC3CCCC3)n2-c2cccnc2)ccc1-c1ccc(S(C)(=O)=O)cc1 [NMS-873]	102	101	83.6	77.7	17.8	88.8	93.1	92.1	85.3	16.2	107	96.2	61.6	19.7	1.5	97	98.5	91.1	84.6	0.2	105	102	107	88	0.3	1.64	1.85	0.175	1.96	2.19	7.3	7.1	19.7	8.1	7.5
c1ccc2c(c1)CCC[C@H]2Nc1nc2ccccc2[nH]1 [NS-8593]	93.1	92.9	92.4	97.2	92.2	96.2	96.2	94	94.3	90.1	96.8	96.8	106	99.2	78.5	104	98.1	96.2	100	90.1	94	95.1	95.6	98.4	87.4	> 10	> 10	> 10	> 10	> 10	0	0	0.8	0	0
